US20240391940A1, “FUSED RING-CONTAINING COMPOUND, APPLICATION THEREOF, AND COMPOSITION CONTAINING SAME” (GenEros Biopharma Ltd., priority 2020, published 2024)
Several values for one entry are separate records, joined by “and”; a condition that tells them apart may be missing. Equal values may be shown once.

Legend:
[1] = tested on: IMQ-induced psoriasis mouse model; assay: IMQ-induced psoriasis mouse model (PASI scoring); assay type: in vivo, Balb/c mice; set-up: key to skin thickening in psoriasis mice (score) / skin redness in psoriasis mice (score) / skin scaling in psoriasis mice (score): 0 = none to 4 = very severe, per sign; settings: DEX 3 mpk PO QD
Description: Method: This experiment used a total of 19 mice. A natural skin observation control (n=1). 2 cm^2 of hair was shaved off the backs of […] on day 0, the stubble was removed with a mild depilatory cream, and the original skin was photographed. 62.5 mg of IMQ was applied to each of the mice. There was a mock group (n=6), a DEX (3 mg/kg, PO., qD) group (n=6), and a GEN1-284s (30 mg/kg, PO, qD) group (n=6). On the day of modeling, administration was performed in a volume of 100 μL/20 g body weight 4 h after IMQ application. The PASI scoring method was used to score the erythema, swelling and scaling on the skin of the mice. The experiment took a total of 6 days. The first day was set to day 0. IMQ application and administration were not performed on day 5. The mice were sacrificed with carbon dioxide at the end of the experiment.
The test animals were anesthetized with isoflurane. 2 cm^2 of hair was shaved off the backs of the mice, and the stubble was removed with a depilatory cream. IMQ application was performed for a total of 5 days, from day 0 to day 4. Scoring and IMQ application were performed every morning. Administration was performed in the afternoon
Desquamation (D): means epidermal cells flake off. The severity scores of skin lesions were as follows: • 0=none; this sign cannot be confirmed by careful observation • 1=mild; this sign can be confirmed but careful observation is required • 2=moderate; this sign is more visible and can be confirmed immediately • 3=severe; this sign is marked. • 4=very severe; this sign is very marked.
Induration I: 0—skin lesions are at the same level as normal skin; • 1—skin lesions are at slightly higher levels than normal skin surface; • 2—lesions moderately stick out and have round or slope-shaped borders; • 3—skin lesions are thick and markedly stick out; • 4—skin lesions are very thick and very markedly stick out.
Erythema E: • 0—no visible erythema; • 1—light red; • 2—red; • 3—dark red; • 4—the red is very dark

[2] = tested on: LPS-induced production of TNF-α; assay: LPS-induced TNF-α production in mice (plasma ELISA); assay type: in vivo; settings: Balb/c mice; dexamethasone 3 mpk, LPS 1 mpk i.p. 0.5 h after administration, plasma 2 h after LPS
Description: Materials and method: A total of 18 mice were used in this experiment. The mice were divided into a MOCK group (n=6), a dexamethasone group (n=6), and a GEN1-284s 15 mpk group (n=6). LPS (1 mpk) was intraperitoneally injected 0.5 h after administration. The mice were sacrificed 2 h after the LPS injection, and blood samples were taken. The blood samples were left in EDTA-K2 anticoagulant tubes at room temperature for 20 min and centrifuged at 8000 rpm for 10 min. The plasma was separated and cryopreserved at −80° C. before analysis.
LPS (1 mpk) was intraperitoneally injected 0.5 h after administration. The mice were sacrificed 2 h after the LPS injection, and blood samples were taken. The blood samples were left in EDTA-K2 anticoagulant tubes at room temperature for 20 min and centrifuged at 8000 rpm for 10 min. The plasma was separated and cryopreserved at −80° C. before analysis.
The mice were tested for TNF-α level with ELISA kits, and the inhibitory effect of GEN1-284s on the TNF-α level was evaluated.
According to the instructions for use, a standard curve formula (y=0.0038x+0.1206, R^2=0.9956) was obtained and can be used to calculate detection values.

[3] = DAY 1, individual mice, listed as DEX
[4] = DAY 2, individual mice, listed as DEX
[5] = DAY 3, individual mice, listed as DEX
[6] = DAY 4, individual mice, listed as DEX
[7] = DAY 5, individual mice, listed as DEX

**Q.** How did the “overall effect on the skin of psoriasis mice (score)” value (“overall effect on the skin” for short) ([1]; DAY 0, individual mice) turn out when `C[C@@H]1C[C@H]2[C@@H]3CCC4=CC(=O)C=C[C@]4(C)[C@@]3(F)[C@@H](O)C[C@]2(C)[C@@]1(O)C(=O)CO` [dexamethasone, Dexamethasone, reference compound] was run?
**A.** 0

**Q.** And the “skin redness in psoriasis mice (score)” value ([1]; DAY 0, individual mice)?
**A.** 0

**Q.** What about the “skin scaling in psoriasis mice (score)” value ([1]; DAY 0, individual mice) of the same compound?
**A.** 0

**Q.** And the “skin thickening in psoriasis mice (score)” value (from here on “skin thickening”) ([1]; DAY 0, individual mice)?
**A.** 0

**Q.** What about the “overall effect on the skin” value [1, 3] of the same compound?
**A.** 1.167 (2×) and 0.5 and 1.333 (2×) and 0.8333

**Q.** And the “skin redness in psoriasis mice (score)” value [1, 3]?
**A.** 0.6667 (2×) and 0.1667 and 0.3333 and 0.5 (2×)

**Q.** And the “skin scaling in psoriasis mice (score)” value [1, 3]?
**A.** 0.5 and 0.3333 (2×) and 0.8333 (2×) and 0.1667

**Q.** And the “skin thickening” value [1, 3]?
**A.** 0 (5×) and 0.5

**Q.** And the “overall effect on the skin” value [1, 4]?
**A.** 1.333 and 1 and 0.5 and 0.8333 and 1.667 and 0.6667

**Q.** And the “skin redness in psoriasis mice (score)” value [1, 4]?
**A.** 0.5 (2×) and 0.6667 (2×) and 0.1667 (2×)

**Q.** What about the “skin scaling in psoriasis mice (score)” value [1, 4] of the same compound?
**A.** 0.8333 and 0.3333 and 0 (2×) and 0.6667 and 1

**Q.** What about the “skin thickening” value [1, 4] of the same compound?
**A.** 0 (5×) and 0.5

**Q.** And the “overall effect on the skin” value [1, 5]?
**A.** 2.5 and 3 and 1 and 2 (2×) and 1.667

**Q.** What about the “skin redness in psoriasis mice (score)” value [1, 5] of the same compound?
**A.** 1.167 and 1 and 0.5 (2×) and 0.3333 and 0.6667

**Q.** What about the “skin scaling in psoriasis mice (score)” value [1, 5] of the same compound?
**A.** 1.333 and 1.5 and 0.5 (2×) and 1 and 1.167

**Q.** And the “skin thickening” value [1, 5]?
**A.** 0 (2×) and 0.5 (4×)

**Q.** And the “overall effect on the skin” value [1, 6]?
**A.** 2.333 (2×) and 1.5 and 3.5 and 3.667 and 2.667

**Q.** What about the “skin redness in psoriasis mice (score)” value [1, 6] of the same compound?
**A.** 0.6667 and 0.5 (2×) and 1.167 (2×) and 1.667

**Q.** And the “skin scaling in psoriasis mice (score)” value [1, 6]?
**A.** 1.167 and 1 (2×) and 1.833 and 1.333 and 1.5

**Q.** And the “skin thickening” value [1, 6]?
**A.** 0.5 (5×) and 0

**Q.** And the “overall effect on the skin” value [1, 7]?
**A.** 3.333 and 2.5 and 3.667 and 2.833 (2×) and 3.5

**Q.** What about the “skin redness in psoriasis mice (score)” value [1, 7] of the same compound?
**A.** 1.167 and 1 (2×) and 0.8333 and 0.6667 and 1.5

**Q.** And the “skin scaling in psoriasis mice (score)” value [1, 7]?
**A.** 1.667 (2×) and 1.5 (2×) and 2.333 and 1.333

**Q.** What about the “skin thickening” value [1, 7] of the same compound?
**A.** 0.5 (5×) and 0

**Q.** And the “Inhibition rate against LPS-induced TNF-α” value [2]?
**A.** 81%
